Calls of active or inactive are those of the source. No cut-off for these calls is given here.
Experiments:
[1] = biological target: T1, Peroxisome proliferator-activated receptor alpha (Homo sapiens) (UniProt Q07869); assay: Agonist activity at human PPARalpha-Gal4 in HEK293 cells by luciferase reporter assay relative to (S)-2-{2-[1-ethyl-3-(4-trifluoro-methoxyphenyl)ureido]indan-5-ylsulfanyl}-2-methylpropionic acid; assay type: functional, cell-based
T1 sequence (whole entry): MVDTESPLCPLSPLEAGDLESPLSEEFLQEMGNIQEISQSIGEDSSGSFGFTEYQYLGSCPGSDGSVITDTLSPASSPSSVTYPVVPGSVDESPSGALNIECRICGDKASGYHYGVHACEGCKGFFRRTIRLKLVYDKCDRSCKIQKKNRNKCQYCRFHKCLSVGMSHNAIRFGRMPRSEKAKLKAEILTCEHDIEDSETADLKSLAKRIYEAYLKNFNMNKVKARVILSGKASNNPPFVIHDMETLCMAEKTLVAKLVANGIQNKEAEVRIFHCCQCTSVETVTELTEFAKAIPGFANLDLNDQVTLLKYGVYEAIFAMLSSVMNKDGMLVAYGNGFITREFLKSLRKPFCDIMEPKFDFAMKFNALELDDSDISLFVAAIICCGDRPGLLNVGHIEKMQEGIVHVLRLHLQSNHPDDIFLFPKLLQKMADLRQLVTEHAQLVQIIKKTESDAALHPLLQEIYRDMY

[2] = biological target: T2, Peroxisome proliferator-activated receptor delta (Homo sapiens, UniProt Q03181); assay: Agonist activity at human PPARdelta-Gal4 in HEK293 cells by luciferase reporter assay; assay type: functional, cell-based
T2 sequence (Q03181 whole entry): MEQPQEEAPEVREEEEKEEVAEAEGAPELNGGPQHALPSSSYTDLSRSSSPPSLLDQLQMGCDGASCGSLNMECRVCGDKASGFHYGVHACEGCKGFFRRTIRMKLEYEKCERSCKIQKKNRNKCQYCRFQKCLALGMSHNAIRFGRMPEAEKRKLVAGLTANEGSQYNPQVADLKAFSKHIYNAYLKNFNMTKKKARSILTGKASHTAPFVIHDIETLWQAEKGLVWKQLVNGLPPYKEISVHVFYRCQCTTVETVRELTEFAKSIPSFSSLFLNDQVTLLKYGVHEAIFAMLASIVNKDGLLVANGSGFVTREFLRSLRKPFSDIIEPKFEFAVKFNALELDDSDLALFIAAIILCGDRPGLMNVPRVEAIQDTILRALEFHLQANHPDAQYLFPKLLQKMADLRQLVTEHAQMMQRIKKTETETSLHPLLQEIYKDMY

[3] = biological target: T3, Peroxisome proliferator-activated receptor alpha (Homo sapiens, UniProt Q07869); assay: Agonist activity at human PPARalpha-Gal4 in HEK293 cells by luciferase reporter assay; assay type: functional, cell-based
T3 sequence (Q07869 whole entry): T1 sequence (whole entry)

[4] = Activity at retinoic acid receptor
[5] = Activity at liver X receptor
[6] = biological target: T4, Glucocorticoid receptor (Homo sapiens) (UniProt P04150); assay: Activity at glucocorticoid receptor
T4 sequence (whole entry): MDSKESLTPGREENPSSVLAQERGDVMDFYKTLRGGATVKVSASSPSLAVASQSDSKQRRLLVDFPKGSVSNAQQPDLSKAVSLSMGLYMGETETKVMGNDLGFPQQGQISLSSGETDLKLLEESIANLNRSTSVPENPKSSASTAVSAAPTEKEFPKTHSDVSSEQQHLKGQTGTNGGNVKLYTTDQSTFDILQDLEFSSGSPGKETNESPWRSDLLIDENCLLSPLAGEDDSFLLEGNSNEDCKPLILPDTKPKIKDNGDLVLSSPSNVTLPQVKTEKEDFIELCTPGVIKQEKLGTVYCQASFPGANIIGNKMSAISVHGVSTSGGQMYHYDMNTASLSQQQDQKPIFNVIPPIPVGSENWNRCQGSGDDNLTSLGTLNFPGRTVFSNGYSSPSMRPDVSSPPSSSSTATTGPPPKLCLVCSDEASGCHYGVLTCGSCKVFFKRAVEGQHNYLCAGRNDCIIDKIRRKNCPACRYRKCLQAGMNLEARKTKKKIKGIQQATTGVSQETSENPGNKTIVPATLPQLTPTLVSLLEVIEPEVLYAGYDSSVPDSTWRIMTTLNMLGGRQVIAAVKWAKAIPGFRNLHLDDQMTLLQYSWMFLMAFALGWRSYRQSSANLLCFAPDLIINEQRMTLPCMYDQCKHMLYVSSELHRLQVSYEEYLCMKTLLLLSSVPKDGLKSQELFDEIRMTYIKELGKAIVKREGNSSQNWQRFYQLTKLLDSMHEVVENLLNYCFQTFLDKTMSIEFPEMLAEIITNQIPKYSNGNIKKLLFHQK

[7] = Activity at retinoic acid X receptor
[8] = biological target: T5, Bile acid receptor (Homo sapiens) (UniProt Q96RI1); assay: Activity at farnesoid X receptor
T5 sequence (whole entry): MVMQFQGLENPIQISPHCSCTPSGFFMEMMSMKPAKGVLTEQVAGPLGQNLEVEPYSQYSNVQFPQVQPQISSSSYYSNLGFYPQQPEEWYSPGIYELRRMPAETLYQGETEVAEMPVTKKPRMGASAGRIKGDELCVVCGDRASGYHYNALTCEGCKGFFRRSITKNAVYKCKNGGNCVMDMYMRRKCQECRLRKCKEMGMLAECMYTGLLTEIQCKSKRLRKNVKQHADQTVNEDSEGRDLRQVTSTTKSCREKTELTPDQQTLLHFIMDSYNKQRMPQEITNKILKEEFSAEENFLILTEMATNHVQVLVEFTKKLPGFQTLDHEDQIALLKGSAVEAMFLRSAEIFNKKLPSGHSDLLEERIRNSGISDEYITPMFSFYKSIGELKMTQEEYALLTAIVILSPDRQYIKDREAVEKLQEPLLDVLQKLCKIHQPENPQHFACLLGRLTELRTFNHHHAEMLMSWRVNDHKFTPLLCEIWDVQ

[9] = biological target: T6, Peroxisome proliferator-activated receptor gamma (Homo sapiens, UniProt P37231); assay: Agonist activity at human PPARgamma-Gal4 in HEK293 cells by luciferase reporter assay; assay type: functional, cell-based
T6 sequence (P37231 whole entry): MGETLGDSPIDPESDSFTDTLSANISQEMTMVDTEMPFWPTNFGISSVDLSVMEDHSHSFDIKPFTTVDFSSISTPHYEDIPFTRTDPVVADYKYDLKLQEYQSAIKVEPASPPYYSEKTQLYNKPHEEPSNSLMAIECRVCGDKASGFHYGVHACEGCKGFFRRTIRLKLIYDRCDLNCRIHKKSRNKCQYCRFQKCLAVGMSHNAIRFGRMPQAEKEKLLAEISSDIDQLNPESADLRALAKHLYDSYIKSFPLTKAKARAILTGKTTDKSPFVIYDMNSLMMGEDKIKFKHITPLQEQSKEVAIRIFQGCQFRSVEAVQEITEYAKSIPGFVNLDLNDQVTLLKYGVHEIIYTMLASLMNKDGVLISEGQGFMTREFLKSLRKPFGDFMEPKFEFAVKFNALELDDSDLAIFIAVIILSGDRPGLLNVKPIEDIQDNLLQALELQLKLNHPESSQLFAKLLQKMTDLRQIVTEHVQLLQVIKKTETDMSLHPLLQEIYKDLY

| Structure (SMILES) | Efficacy [1] [%] | other results |
| --- | --- | --- |
| Cc1cc(OCc2nc(-c3ccc(Cl)c(Cl)c3)ns2)ccc1OC(C)(C)C(=O)O | 83 | – |
| Cc1cc(SCc2nc(-c3ccc(OC(F)(F)F)cc3)ns2)ccc1OC1(C(=O)O)CCCC1 | 31 | – |
| Cc1cc(OCc2nc(-c3ccc(OC(F)(F)F)cc3)ns2)ccc1OC(C)(C)C(=O)O | 80 | – |
| Cc1ccc(-c2nsc(COc3ccc(OC(C)(C)C(=O)O)c(C)c3)n2)cc1Cl | 75 | – |
| Cc1cc(OCc2nc(-c3ccc(C(F)(F)F)c(F)c3)ns2)ccc1OC(C)(C)C(=O)O | 65 | EC50 [3]: 0.086 µM |
| CC(C)(Oc1ccc(SCc2nc(-c3ccc(C(F)(F)F)cc3)ns2)cc1)C(=O)O | – | EC50 [2]: 0.02 µM; EC50 [3]: 0.155 µM; EC50 [9]: > 3 µM |
| Cc1cc(SCc2cc(-c3ccc(C(F)(F)F)cc3)on2)ccc1OCC(=O)O | 41 | – |
| Cc1cc(SCc2cc(-c3ccc(C(F)(F)F)cc3)sn2)ccc1OCC(=O)O | 43 | – |
| Cc1ccc(-c2nsc(COc3ccc(OC(C)(C)C(=O)O)c(C)c3)n2)cc1C | 58 | – |
| Cc1cc(OCc2nc(-c3ccc(OC(F)(F)F)c(Cl)c3)ns2)ccc1OC(C)(C)C(=O)O | 101 | – |
| Cc1cc(SCc2cc(-c3ccc(C(F)(F)F)cc3)ns2)ccc1OCC(=O)O | 43 | EC50 [3]: 1.29 µM |

Further lines, with some results ahead:

| Efficacy [1] [%] | Structure (SMILES) | other results |
| --- | --- | --- |
| 53 | Cc1cc(SCc2nc(-c3ccc(C(F)(F)F)c(F)c3)ns2)ccc1OC(C)(C)C(=O)O | EC50 [2]: 0.005 µM |
| 44 | Cc1cc(SCc2nc(-c3ccc(OC(F)(F)F)cc3)ns2)ccc1OC(C)(C)C(=O)O | Activity [4]: inactive; Activity [5]: inactive; Activity [6]: inactive; Activity [7]: inactive; Activity [8]: inactive |
| 45 | Cc1ccc(-c2nsc(CSc3ccc(OC(C)(C)C(=O)O)c(C)c3)n2)cc1C | EC50 [9]: > 3 µM |
| 38 | Cc1cc(SCc2nsc(-c3ccc(C(F)(F)F)cc3)n2)ccc1OC(C)(C)C(=O)O | – |
| 51 | Cc1cc(SCc2nc(-c3ccc(C(F)(F)F)cc3)ns2)ccc1OC(C)(C)C(=O)O | – |
| 33 | Cc1cc(SCc2nc(-c3ccc(Cl)cc3Cl)ns2)ccc1OC(C)(C)C(=O)O | – |
| 71 | Cc1cc(SCCc2nc(-c3ccc(Cl)c(Cl)c3)ns2)ccc1OC(C)(C)C(=O)O | EC50 [2]: 0.009 µM; EC50 [9]: 0.815 µM |
| 47 | Cc1cc(SCc2nsc(-c3ccc(OC(F)(F)F)cc3)n2)ccc1OC(C)(C)C(=O)O | – |
| 38 | Cc1cc(SCc2nc(-c3ccc(Cl)cc3)ns2)ccc1OC(C)(C)C(=O)O | – |
| 71 | Cc1cc(OCc2nc(-c3ccc(C(F)(F)F)cc3)ns2)ccc1OC(C)(C)C(=O)O | – |
| 42 | Cc1cc(SCc2nc(-c3ccc(C(F)(F)F)cc3)ns2)ccc1OCC(=O)O | – |
| 74 | Cc1ccc(-c2nsc(CSc3ccc(OC(C)(C)C(=O)O)c(C)c3)n2)cc1Cl | EC50 [2]: 0.025 µM; EC50 [3]: 0.07 µM |
| 73 | Cc1cc(SCc2nc(-c3ccc(OC(F)(F)F)c(Cl)c3)ns2)ccc1OC(C)(C)C(=O)O | EC50 [2]: 0.003 µM |
| 65 | Cc1cc(SCCc2nc(-c3ccc(C(F)(F)F)cc3)ns2)ccc1OC(C)(C)C(=O)O | – |
